{
  "source": "patent US10118935B2",
  "about": "“Melampomagnolide B dimers” (priority 2014, dated 2018)",
  "key": {"SF-268": {"tested_on": "SF-268", "assay": "NCI 60 cell line five dose, CNS Cancer"}, "SW-620": {"tested_on": "SW-620", "assay": "NCI 60 cell line five dose, Colon Cancer"}, "SN12C": {"tested_on": "SN12C", "assay": "NCI 60 cell line five dose, Renal Cancer"}, "TK-10": {"tested_on": "TK-10", "assay": "NCI 60 cell line five dose, Renal Cancer"}, "MDA-MB-231/ATCC": {"tested_on": "MDA-MB-231/ATCC", "assay": "NCI 60 cell line five dose, Breast Cancer"}, "MDA-MB-468": {"tested_on": "MDA-MB-468", "assay": "NCI 60 cell line five dose, Breast Cancer"}, "NCI/ADR-RES": {"tested_on": "NCI/ADR-RES", "assay": "NCI 60 cell line five dose, Ovarian Cancer", "conditions": "NCI/ADR-RES"}, "DU-145": {"tested_on": "DU-145", "assay": "NCI 60 cell line five dose, Prostate Cancer"}, "NCI-H23": {"tested_on": "NCI-H23", "assay": "NCI 60 cell line five dose, Non-Small Cell Lung Cancer"}, "NCI-H322M": {"tested_on": "NCI-H322M", "assay": "NCI 60 cell line five dose, Non-Small Cell Lung Cancer"}, "NCI-H522": {"tested_on": "NCI-H522", "assay": "NCI 60 cell line five dose, Non-Small Cell Lung Cancer"}},
  "data": [
    {"smiles": "C=C1C(=O)O[C@H]2[C@H]1CC/C(COC(=O)NCCCCCNC(=O)OC/C1=C/CC[C@@]3(C)O[C@H]3[C@H]3OC(=O)C(=C)[C@@H]3CC1)=C\\CC[C@@]1(C)O[C@@H]21", "note": "[JVM 2-76, bis(((1aR,7aS,10aS,10bS,E)-1a-Methyl-8-methylene-9-oxo-1a,2,3,6,7,7a,8,9,10a,10b-decahydrooxireno[2′,3′:9,10]cyclodeca[1,2-b]furan-5-yl)methyl)pentane-1,5-diyldicarbamate]", "values": [
      {"measurement": "GI50", "setting": "HL-60(TB)", "result": 0.31, "unit": "µM"},
      {"measurement": "TGI", "setting": "HL-60(TB)", "result": 1.71, "unit": "µM"},
      {"measurement": "CC50", "setting": "HL-60(TB); read-out: LC50", "result": "> 100", "unit": "µM"},
      {"measurement": "GI50", "setting": "SF-268", "result": 3.08, "unit": "µM"},
      {"measurement": "TGI", "setting": "SF-268", "result": 12.0, "unit": "µM"},
      {"measurement": "CC50", "setting": "SF-268; read-out: LC50", "result": 42.3, "unit": "µM"},
      {"measurement": "GI50", "setting": "SW-620", "result": 0.43, "unit": "µM"},
      {"measurement": "TGI", "setting": "SW-620", "result": 1.75, "unit": "µM"},
      {"measurement": "CC50", "setting": "SW-620; read-out: LC50", "result": 5.14, "unit": "µM"},
      {"measurement": "GI50", "setting": "SN12C", "result": 2.49, "unit": "µM"},
      {"measurement": "TGI", "setting": "SN12C", "result": 10.7, "unit": "µM"},
      {"measurement": "CC50", "setting": "SN12C; read-out: LC50", "result": 45.5, "unit": "µM"},
      {"measurement": "GI50", "setting": "TK-10", "result": 1.82, "unit": "µM"},
      {"measurement": "TGI", "setting": "TK-10", "result": 4.40, "unit": "µM"},
      {"measurement": "CC50", "setting": "TK-10; read-out: LC50", "result": 11.8, "unit": "µM"},
      {"measurement": "GI50", "setting": "MDA-MB-231/ATCC", "result": 1.47, "unit": "µM"},
      {"measurement": "TGI", "setting": "MDA-MB-231/ATCC", "result": 3.07, "unit": "µM"},
      {"measurement": "CC50", "setting": "MDA-MB-231/ATCC; read-out: LC50", "result": 6.4, "unit": "µM"},
      {"measurement": "GI50", "setting": "MDA-MB-468", "result": 1.06, "unit": "µM"},
      {"measurement": "TGI", "setting": "MDA-MB-468", "result": 3.96, "unit": "µM"},
      {"measurement": "CC50", "setting": "MDA-MB-468; read-out: LC50", "result": 24.7, "unit": "µM"},
      {"measurement": "GI50", "setting": "NCI/ADR-RES", "result": 70, "unit": "µM"},
      {"measurement": "TGI", "setting": "NCI/ADR-RES", "result": ">100", "unit": "µM"},
      {"measurement": "CC50", "setting": "NCI/ADR-RES; read-out: LC50", "result": "> 100", "unit": "µM"},
      {"measurement": "GI50", "setting": "DU-145", "result": 3.06, "unit": "µM"},
      {"measurement": "TGI", "setting": "DU-145", "result": 9.55, "unit": "µM"},
      {"measurement": "CC50", "setting": "DU-145; read-out: LC50", "result": 32.6, "unit": "µM"},
      {"measurement": "GI50", "setting": "NCI-H23", "result": 2.66, "unit": "µM"},
      {"measurement": "TGI", "setting": "NCI-H23", "result": 7.71, "unit": "µM"},
      {"measurement": "CC50", "setting": "NCI-H23; read-out: LC50", "result": 45.5, "unit": "µM"},
      {"measurement": "GI50", "setting": "NCI-H322M", "result": 16.4, "unit": "µM"},
      {"measurement": "TGI", "setting": "NCI-H322M", "result": 41.6, "unit": "µM"},
      {"measurement": "GI50", "setting": "NCI-H522", "result": 0.22, "unit": "µM"},
      {"measurement": "TGI", "setting": "NCI-H522", "result": 0.44, "unit": "µM"},
      {"measurement": "CC50", "setting": "NCI-H522; read-out: LC50", "result": 0.88, "unit": "µM"}
    ]}
  ]
}
